Ends that are not written are not given here.
What was measured:
Assay type in all cases: cell-based
[1] = LC50 on immune cells (cytotoxic effect, cell viability)
Description: The mouse immune cells are obtained from C57BL6 mouse bone marrow. The human immune cells were purified from the whole blood of healthy donors (blood bank, IMSS, Cuernavaca, Mexico).
(§1) The peptides are incubated at 37° C., 5% CO2 in the presence of 500,000 immune and non-immune cells in RPMI medium at varied concentrations and at varied times. Peptide-free cells are used as the negative control and cells incubated for 5 min at 50° C. or in the presence of DMSO (30%) are used as the positive control. After incubation, the cells are washed then labelled with propidium iodide so as to measure the cell viability. The cell viability is analysed by counting or with flow cytometry in the presence of antibodies coupled with fluorochromes corresponding to characteristic markers of each cell population. The LC50 is then calculated as being the concentration of DA2N and DA2NEQ peptides inducing the death of 50% of each one of the immune cell populations.
(§2) Cytometry data processing is carried out with FlowJo software.

[2] = system: non-immune cells (epithelial cells); assay: Survival of non-immune cells; settings: doses of the micromolar order; mouse and human epithelial cells
Description: The following non-immune cells were extracted after sacrificing C57BL6 mice or in a surgical context: epithelial cells, adipocytes, hepatocytes.
as §1, §2

Human red blood cells = assay: Haemolytic activity; settings: 10 µM and 50 µM, 1h at 37° C.
Description: Mouse or donor blood is washed three times in 10 volumes of PBS at 4° C. by centrifugation at 800 g for 10 minutes. The blood sediment is finally diluted to 4% (v/v) in PBS buffer. The test was carried out as follows: either 10 µM, or 50 µM of peptide was added to 100 µL of red blood cell suspension.
After 1h of incubation at 37° C. followed by centrifugation (800 g, 15 min), the absorbance of the supernatant was measured at 550 nm.
The negative control for this test (0% haemolysis) contains 5 µL of PBS buffer instead of the solution containing the peptide and the positive control (100% haemolysis) contains 5 µL of 1% Triton X100 instead of the solution containing the peptide.

[3] = Cytotoxic effects on immune cells obtained from mouse bone marrow; settings: mouse immune cells originating from bone marrow, read-out: LC50
Description: The mouse immune cells are obtained from C57BL/6 or Balb/c mouse bone marrow. The peptides are incubated at 37° C., 5% CO2 in the presence of 500,000 immune cells in RPMI medium at varied concentrations for 2 hours. Peptide-free cells are used as the negative control and cells in the presence of DMSO (30%) are used as the positive control. After incubation, the cells are washed then labelled with Trypan blue so as to measure the cell viability by microscope counting. The LC50 is then calculated as being the concentration of DA2N, K12A and DANa peptides inducing the death of 50% of the immune cells.

[4] = system: Klebsiella oxytoca CIP 7932; assay: MIC/MBC, growth inhibition in liquid medium (Example 2); settings: Table 2
Text: (§3) Escherichia coli (ATCC 8739, ATCC ML35p and P7 BLSE), Pseudomonas aeruginosa (ATCC 9027 and ATCC 27853), Klebsiella oxytoca (CIP 7932), Klebsiella pneumoniae (CIP 52.211), Salmonella enterica (CIP 8297), Yersinia ruckeri (ATCC 29473), Vibrio parahemolyticus (IFREMER 01 01/252), Staphylococcus aureus (ATCC 6538, ST 1065 and MRSA), Staphylococcus epidermidis (BM 3302), Listeria monocytogenes (SOR 100), Enterococcus faecalis (CIP A186, CIP 103015)), Kocuria rhizophila (ATCC 9341), Lactococcus garviae (ATCC 43921), Bacillus subtilis (CIP 52.65).
(§4) For each strain, a 5 ml pre-culture in LB medium is prepared by inoculating a colony of the bacterial strain of interest. The pre-culture is incubated at 37° C. under stirring overnight. The culture is subcultured (30 µL) in 5 mL. The culture concentration is evaluated by measuring the optical density at 620 nm. The concentration is adjusted by dilution so as to obtain a suspension with an OD of 0.05 at 620 nm.
(§5) The MIC is determined using a growth inhibition test in liquid medium. The MIC is defined as being the lowest peptide concentration capable of inhibiting the bacterial strain tested, after incubation for 18 h at 37° C. The test was carried out in a sterile microtitration plate containing 96 wells. A series of increasing concentrations of each peptide (0.2 to 100 µM) was prepared beforehand in sterile MilliQ water. In each well, 10 µL of peptide was incubated with 90 µL of bacterial suspension (10^7 cfu/mL) in yeast extract-free LB medium. The microplate was incubated at 37° C. for 18 h. The bacterial growth was evaluated by measuring the OD at 620 nm using a plate reader.
(§6) The negative growth inhibition control was obtained by replacing the solution containing the peptide by sterile MilliQ water. The positive control suitable for completely inhibiting the growth of the bacterial strains was obtained by replacing the solution containing the peptide by 10 µL of formaldehyde.
(§7) The results are interpreted by calculating the percentage of bacterial growth in each well according to the formula:
(§8) %Growth = (OD well - OD of T0)/(OD of T100-OD of T0)*100 where
(§9) • OD of T100 = OD of growth control (bacterial suspension free from sample under test, 100% growth), • OD of T0 = OD of sterility control (culture medium + bacterium + 10 µL formaldehyde, 0% growth) and • OD well = OD of well for which it is sought to calculate the growth percentage (bacterial suspension + peptide under test).
(§10) The MBC is defined as being the minimum peptide concentration leaving no surviving bacteria of the inoculum after incubation at 37° C. for 24 hours. This test consists of smearing the contents of the well wherein the peptide has inhibited bacterial growth on a Petri dish (LB agar), followed by incubation for 24 h at 37° C.

[5] = system: Kocuria rhizophila ATCC 9341; assay: as above; settings: Table 2
Text: as §3, §4, §5, §6, §7, §8, §9, §10

[6] = C57BL6, Neutrophils, Mouse cells
[7] = C57BL6, T lymphocytes, Mouse cells

## ALWKTLLKKVGKVAGKAVLNAVTNMANQN-OH [DA2N]
[1]; C57BL6, Monocytes, Mouse cells
  CC50: 5 µM
[1]; C57BL6, NK cells, Mouse cells
  CC50: 3 µM
[1]; [6]
  CC50: 6 µM
[1]; [7]
  CC50: 3 µM
[1]; Monocytes, Human cells
  CC50: 4 µM
[1]; NK cells, Human cells
  CC50: 4 µM
[1]; Neutrophils, Human cells
  CC50: 7.5 µM
[1]; T lymphocytes, Human cells
  CC50: 4 µM
[2]
  death of non-immune cells: induce the death of immune cells but not of non-immune cells
Human red blood cells
  haemolysis of human red blood cells: do not induce the haemolysis
[3]
  CC50 at 2 hours: 5 µM
[4]
  MBC: 6.25 µM
  MIC: 3.12 µM
[5]
  MBC: 3.12 µM
  MIC: 3.12 µM

## ALWKTLLKKVGKVAGKAVLNAVTNMANQNEQ [DA2NEQ, ALWKTLLKKVGKVAGKAVLNAVTNMANQNEQOH]
[1]; C57BL6, Monocytes, Mouse cells
  CC50: 7 µM
[1]; C57BL6, NK cells, Mouse cells
  CC50: 4 µM
[1]; [6]
  CC50: 7.5 µM
[1]; [7]
  CC50: 5 µM
[1]; Monocytes, Human cells
  CC50: 4 µM
[1]; NK cells, Human cells
  CC50: 4 µM
[1]; Neutrophils, Human cells
  CC50: 7 µM
[1]; T lymphocytes, Human cells
  CC50: 5 µM
[2]
  death of non-immune cells: induce the death of immune cells but not of non-immune cells
Human red blood cells
  haemolysis of human red blood cells: do not induce the haemolysis
[4]
  MBC: >100 µM
  MIC: 12.5 µM
[5]
  MBC: 6.25 µM
  MIC: 6.25 µM
